Legend:
NK cells = assay: Cytotoxic activity of spleen NK cells from orally treated mice against B16 melanoma cells (LDH release); type: in vivo, Balb/c mice; details: oral daily for one week; lycopene 2 mg/day or resveratrol 4 mg/day
Procedure: NK cells were isolated from Balb/c mice spleen. Each group of mice were killed at day 7 post-feeding of lycopene/resveratrol. The spleens were excised and soaked in 75% ethanol for 5 min, and smeared gently on cell sieves. The single cells were collected by flushing the sieve with RPMI-1640 medium. The derived total spleen cells were isolated by centrifugation at 2000 rpm by placing the mixture on the top of lymphocyte separation solution for 25 min. The white-colored lymphocyte layer was recovered carefully, and washed twice with serum-free RPMI-1640 medium, counted and transferred into 6-well plates as the stock. The lymphocytes thus prepared contains 10-20% of NK cells, and used for NK cell assay [Ref. 18: Zhang (2006)].
The B16 melanoma was excised from a tumor-bearing C57 mouse, and soaked in Hank's medium for 30 min. The adipose and necrotic parts of the tumor were removed, and the tumor was cut into small pieces and treated with RPMI-1640 containing 0.1% type II […] at 4° C. for 12 h. […]
NK cells isolated from mice spleen were mixed with B16 melanoma cells at ratios of 25:1, 50:1 and 100:1, and incubated at 37° C. After 5 h, the lactate dehydrogenase (LDH) activities in 100 μl of culture media were measured as the cytolytic activity of NK cells. Cytotoxicity is calculated according to the following formula. […]

[1] = cited from earlier work

| SMILES | NK cytotoxicity change versus control (NK cells) | anti-oxidative activity, higher than vitamin E ([1]; relative to vitamin E) | anti-oxidative activity, higher than β-carotene ([1]; relative to β-carotene) |
| --- | --- | --- | --- |
| CC(C)=CCC/C(C)=C/C=C/C(C)=C/C=C/C(C)=C/C=C/C=C(C)/C=C/C=C(C)/C=C/C=C(\C)CCC=C(C)C [lycopene] | slight increase (not significantly) | 100 folds | 3.2 folds |
| Oc1ccc(C=Cc2cc(O)cc(O)c2)cc1 [resveratrol] | slight increase (not significantly) | – | – |
